pIC50: −log10 of the molar value.
What was measured:
[1] = Inhibition of Baker's yeast alpha-glucosidase pre-incubated for 10 mins before para-nitrophenyl-alpha-D-glucopyranoside substrate addition; set-up: species or system Saccharomyces cerevisiae
[2] = Inhibition of rat intestinal maltase using maltose substrate incubated for 10 mins
[3] = biological target: Sucrase-isomaltase, intestinal (Rattus norvegicus, UniProt P23739); experiment: Inhibition of rat intestinal sucrase using sucrose substrate incubated for 10 mins
Sequence of Sucrase-isomaltase, intestinal (P23739 1-1013 limits assumed): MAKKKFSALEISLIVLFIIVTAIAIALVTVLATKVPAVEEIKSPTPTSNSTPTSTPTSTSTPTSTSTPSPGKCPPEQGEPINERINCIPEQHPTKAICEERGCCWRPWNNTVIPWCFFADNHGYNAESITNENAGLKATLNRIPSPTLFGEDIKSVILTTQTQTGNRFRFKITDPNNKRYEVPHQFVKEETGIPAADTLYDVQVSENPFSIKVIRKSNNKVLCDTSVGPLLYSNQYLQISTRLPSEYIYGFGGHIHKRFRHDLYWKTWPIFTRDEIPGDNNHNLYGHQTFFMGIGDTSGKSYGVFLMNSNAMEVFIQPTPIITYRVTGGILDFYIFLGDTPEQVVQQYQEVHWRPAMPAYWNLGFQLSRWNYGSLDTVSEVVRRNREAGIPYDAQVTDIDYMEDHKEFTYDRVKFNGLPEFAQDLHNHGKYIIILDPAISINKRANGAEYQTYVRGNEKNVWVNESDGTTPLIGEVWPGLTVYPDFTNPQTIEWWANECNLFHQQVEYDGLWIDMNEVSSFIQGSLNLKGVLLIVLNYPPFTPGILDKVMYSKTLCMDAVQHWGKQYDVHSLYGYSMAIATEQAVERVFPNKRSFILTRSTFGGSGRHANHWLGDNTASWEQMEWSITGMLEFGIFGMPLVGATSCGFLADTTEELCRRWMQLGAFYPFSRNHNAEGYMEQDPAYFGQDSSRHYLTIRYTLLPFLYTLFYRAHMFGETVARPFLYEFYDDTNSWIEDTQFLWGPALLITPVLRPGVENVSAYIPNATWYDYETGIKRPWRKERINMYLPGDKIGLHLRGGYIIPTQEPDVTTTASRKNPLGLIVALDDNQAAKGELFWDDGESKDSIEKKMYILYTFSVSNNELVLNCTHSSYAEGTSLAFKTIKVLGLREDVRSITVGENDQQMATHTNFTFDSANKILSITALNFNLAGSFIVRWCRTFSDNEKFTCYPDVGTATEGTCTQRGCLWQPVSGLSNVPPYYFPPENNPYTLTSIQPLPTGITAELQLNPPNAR
Sequence of Sucrase-isomaltase, intestinal (P23739 1014-1841 limits assumed): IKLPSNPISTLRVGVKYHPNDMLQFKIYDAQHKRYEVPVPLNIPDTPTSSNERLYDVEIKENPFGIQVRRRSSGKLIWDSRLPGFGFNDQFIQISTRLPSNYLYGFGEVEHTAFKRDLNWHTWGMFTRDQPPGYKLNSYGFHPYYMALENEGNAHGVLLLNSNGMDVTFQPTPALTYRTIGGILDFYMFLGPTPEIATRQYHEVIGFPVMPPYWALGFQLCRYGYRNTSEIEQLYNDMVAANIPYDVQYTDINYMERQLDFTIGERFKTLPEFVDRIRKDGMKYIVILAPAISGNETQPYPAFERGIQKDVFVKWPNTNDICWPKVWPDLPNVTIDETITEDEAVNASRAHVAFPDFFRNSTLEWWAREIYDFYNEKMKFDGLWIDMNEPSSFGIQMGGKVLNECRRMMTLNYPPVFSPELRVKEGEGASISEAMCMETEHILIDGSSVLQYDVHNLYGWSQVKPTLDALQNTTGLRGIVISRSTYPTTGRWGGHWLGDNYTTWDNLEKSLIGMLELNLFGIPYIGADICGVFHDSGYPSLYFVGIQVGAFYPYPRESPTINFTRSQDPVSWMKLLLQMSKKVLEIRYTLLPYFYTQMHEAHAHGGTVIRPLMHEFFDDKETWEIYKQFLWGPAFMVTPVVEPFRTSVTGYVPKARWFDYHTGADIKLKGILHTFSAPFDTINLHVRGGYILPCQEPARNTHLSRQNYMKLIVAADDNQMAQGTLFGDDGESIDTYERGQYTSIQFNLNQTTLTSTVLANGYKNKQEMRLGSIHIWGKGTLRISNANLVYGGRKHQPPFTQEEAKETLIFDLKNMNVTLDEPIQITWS

[4] = Inhibition of alpha-glucosidase (unknown origin); set-up: species or system Homo sapiens

Row | SMILES | pIC50 [1] | pIC50 [2] | pIC50 [4] | pIC50 [3]
1 | OC1CC(N[C@H]2C[C@@H](O)[C@H](O)[C@@H](O)[C@H]2O)[C@@H](O)[C@@H](O)[C@@H]1O (single isomer, unassigned) | 4.49 | 5.51 |  | 5.43
2 | O[C@H]1[C@H](O)[C@@H](N[C@H]2C=C[C@@H](O)[C@@H](O)[C@@H]2O)C=C[C@H]1O |  |  | 2.85 | 
3 | O[C@@H]1[C@@H](O)[C@@H](O)[C@H](N[C@H]2[C@H](O)[C@H](O)[C@@H](O)[C@@H](O)[C@@H]2O)[C@@H](O)[C@@H]1O |  |  | < 2.70 | 
4 | CC(=O)N([C@H]1[C@H](O)[C@H](O)[C@@H](O)[C@@H](O)[C@@H]1O)[C@H]1[C@H](O)[C@H](O)[C@@H](O)[C@@H](O)[C@@H]1O |  |  | 3.43 | 
5 | O[C@@H]1[C@@H](O)[C@H](O)C[C@H](N[C@H]2C[C@H](O)[C@@H](O)[C@H](O)[C@@H]2O)[C@@H]1O | 4.40 | 5.44 |  | 5.40
6 | CC(=O)N([C@H]1C=C[C@@H](O)[C@@H](O)[C@@H]1O)[C@H]1C=C[C@@H](O)[C@@H](O)[C@@H]1O |  |  | 2.87 | 
7 | C[C@H]1O[C@H](O[C@H]2[C@H](O)[C@@H](O)[C@@H](O[C@H]3[C@H](O)[C@@H](O)C(O)O[C@@H]3CO)O[C@@H]2CO)[C@H](O)[C@@H](O)[C@@H]1N[C@H]1C=C(CO)[C@@H](O)[C@H](O)[C@H]1O (some centres undefined) [ACARBOSE] | 3.39 | 5.82 |  | 

Second part, led by results:

Row | pIC50 [1] | pIC50 [2] | pIC50 [4] | SMILES | pIC50 [3]
8 | 4.90 | 5.36 |  | N[C@@H]1C[C@@H](O)[C@H](O)[C@@H](O)[C@H]1O | 5.17
9 | 2.54 | 5.24 |  | N[C@H]1C[C@@H](O)[C@H](O)[C@@H](O)[C@H]1O | 5.14
10 |  |  | < 2.70 | N[C@H]1[C@H](O)[C@H](O)[C@@H](O)[C@@H](O)[C@@H]1N[C@H]1[C@H](O)[C@H](O)[C@@H](O)[C@@H](O)[C@@H]1O | 
